According to US20190225650A1, “PEPTIDOMIMETIC MACROCYCLES AND USE THEREOF IN REGULATING HIF1ALPHA” (AILERON THERAPEUTICS, INC., priority 2013, published 2019):
Bridge positions count the residues as written; N and C are the ends. Square brackets hold non-standard residues; d marks the D form. Peptide text beside a SMILES is read from it. R8 = C=CCCCCCC[C@@](C)(N)C(=O)O; S5 = C=CCCC[C@](C)(N)C(=O)O; Nle = CCCC[C@H](N)C(=O)O

Tests used:
[1] = system: HRE-bla ME-180 cells; experiment: Cell proliferation assay (viability, MTT, 1% FBS); type: cell-based, human
Experimental: The human cervical cell line HRE-Bla ME-180 was obtained from Invitrogen. 2×10^4 ME-180 cells were plated in 96-well plates (costar) in Opti-MEM plus 1% FBS (Invitrogen). After 4 hr, cells were pretreated with chetomin, peptide or 0.5% DMSO (final concentration in media) vehicle control for 16 hr under normoxia (21% O2); then incubation continued under normoxia or hypoxia (1% O2) using a hypoxia incubator (Thermo Forma model). Viable cell numbers were quantified using CellTiter 96 Non-Radioactive Cell Proliferation kit (Promega, G4100). The results are presented in the column “Viability 1% FBS AVG (MTT V3-24 hr Normoxia) (μM)” of Table 6.

[2] = system: HRE-bla ME-180 cells; experiment: Reporter gene assay (HRE-bla ME-180 HIF reporter, GeneBLAzer); type: cell-based, human; conditions: for EC50: 24 hour normoxia
Method in brief: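 A FRET β-lactamase readout of HIF transcription was used. After compound treatment in 0.3% DMSO/media under normoxic conditions, 20 μl of 6× LiveBLAzer-FRET B/G (CCF4-AM) substrate was added. Plates sat 3 hr at room temperature in the dark and were read at 409 Ex/460Em and 409Ex/530Em on a Synergy 2. Inhibition was compared against DMSO vehicle controls, with chetomin as positive control.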

[3] = molecular target: T1, flag-tagged HIF1α (AA 786-826) / His6-tagged p300 (AA 323-423) complex (Homo sapiens, UniProt Q09472); experiment: HIF1α p300 displacement assay (TR FRET, +CHAPS); type: binding; conditions: read-out: IC50 (nM) (HIF1α_p300 Displacement + CHAPS)
T1 construct: His6-tagged p300 (AA 323-423); made in house; host or cells: E. coli (pETDuet vector)
Method in brief: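 In this TR-FRET displacement format, peptides compete HIF1α C-terminal transactivation domain off p300-CH. They were preincubated 1 h at room temperature with 300 nM complex in HEPES pH 7.4/NaCl buffer with 7.5 mM CHAPS and 1 mM DTT. Anti-His-D2 (4 nM) and anti-Flag-K (0.5 μM) followed for 2 h, and a one-site fit of the fluorescence ratio gave IC50.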

T1 sequence (Q09472 323-423, one chain of several): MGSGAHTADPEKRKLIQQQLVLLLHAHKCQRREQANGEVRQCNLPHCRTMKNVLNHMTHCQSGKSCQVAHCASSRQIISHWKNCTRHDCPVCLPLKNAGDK

## CCCC[C@H](NC(=O)[C@H](Cc1ccccc1)NC(=O)[C@@H](NC(=O)[C@H](C)NC(=O)[C@H](CCC(N)=O)NC(=O)[C@H](CC(=O)O)NC(=O)[C@@H](NC(=O)[C@H](Cc1ccccc1)NC(C)=O)[C@@H](C)CC)C(C)C)C(=O)N[C@@]1(C)CCCC=CCCC[C@@](C)(C(=O)N[C@@H](CCCC)C(=O)N[C@@H](C)C(=O)N[C@@H](CC(C)C)C(=O)N[C@@H](CC(C)C)C(N)=O)NC(=O)[C@H]([C@@H](C)CC)NC(=O)[C@H](C(C)C)NC(=O)[C@H](CC(C)C)NC1=O [SP-250] (Ac-FIDQAVF[Nle][S5]LVI[S5][Nle]ALL-NH2; staple 9-13)
[1]
  Viability 1% FBS AVG (MTT V3-24 hr Normoxia) (μM): ++++ (≥30: ++++)
[2]
  18 h Avg % max inhibition at top conc (HIF Rptr-24 hrs normoxia) (μM): + (<10: +)
  EC50: > 30 µM

## CCCC[C@H](NC(=O)[C@H](CC(C)C)NC(=O)[C@@H](NC(=O)[C@H](CCC(=O)O)NC(=O)[C@H](CCC(=O)O)NC(=O)[C@H](CC(=O)O)NC(=O)[C@@H](NC(=O)[C@H](Cc1ccccc1)NC(C)=O)[C@@H](C)CC)C(C)C)C(=O)N[C@@]1(C)CCCC=CCCC[C@@](C)(C(=O)N[C@@H](CCCC)C(=O)N[C@@H](C)C(=O)N[C@@H](CC(C)C)C(N)=O)NC(=O)[C@H]([C@@H](C)CC)NC(=O)[C@H](C(C)C)NC(=O)[C@H](CC(C)C)NC1=O [SP-8] (Ac-FIDEEVL[Nle][S5]LVI[S5][Nle]AL-NH2; staple 9-13)
[1]
  Viability 1% FBS AVG (MTT V3-24 hr Normoxia) (μM): ++++ (≥30: ++++)

## CCCC[C@H](NC(=O)[C@]1(C)CCCC=CCCC[C@](C)(NC(=O)[C@H](CCCC)NC(=O)[C@H](CC(C)C)NC(=O)[C@@H](NC(=O)[C@H](CCC(=O)O)NC(=O)[C@H](CCC(=O)O)NC(=O)[C@H](CC(=O)O)NC(=O)[C@@H](NC(=O)[C@H](CC(N)=O)NC(=O)[C@@H](NC(=O)[C@]2(C)CCCC=CCCCCCC[C@@](C)(NC(=O)[C@H](CCC(=O)O)NC(=O)[C@H](C)NC(=O)[C@H](CCC(N)=O)NC(=O)[C@H](CC(C)C)NC(=O)[C@H](CC(C)C)NC(C)=O)C(=O)N[C@@H](CC(C)C)C(=O)N[C@@H](CC(C)C)C(=O)N[C@@H](CCCNC(=N)N)C(=O)N[C@@H](C)C(=O)N[C@@H](CC(C)C)C(=O)N[C@@H](CC(=O)O)C(=O)N2)C(C)C)[C@@H](C)CC)C(C)C)C(=O)N[C@@H](CC(C)C)C(=O)N[C@@H](C(C)C)C(=O)N[C@@H]([C@@H](C)CC)C(=O)N1)C(N)=O [SP-350] (Ac-LLQAE[R8]LLRALD[S5]VNIDEEVL[Nle][S5]LVI[S5][Nle]-NH2; staple 6-13, 23-27)
[1]
  Viability 1% FBS AVG (MTT V3-24 hr Normoxia) (μM): ++++ (≥30: ++++)
[2]
  18 h Avg % max inhibition at top conc (HIF Rptr-24 hrs normoxia) (μM): +++ (≤25 but <50: +++)
  EC50: 5 to 15 µM

## CC[C@H](C)[C@H](NC(=O)[C@H](CC(N)=O)NC(=O)[C@@H](NC(=O)[C@H](CCC(N)=O)NC(=O)[C@H](CC(=O)O)NC(=O)[C@H](CC(C)C)NC(=O)[C@H](C)NC(=O)[C@H](CCCNC(=N)N)NC(=O)[C@H](CC(C)C)NC(=O)[C@H](CC(C)C)NC(=O)[C@H](CCC(=O)O)NC(=O)[C@H](CCC(=O)O)NC(=O)CNC(=O)[C@H](CCC(N)=O)NC(=O)[C@H](CC(C)C)NC(=O)[C@H](CC(C)C)NC(C)=O)C(C)C)C(=O)N[C@@H](CC(=O)O)C(=O)N[C@@H](CCC(=O)O)C(=O)N[C@@H](CCC(=O)O)C(=O)N[C@H](C(=O)N[C@@H](CC(C)C)C(=O)N[C@@H](CCSC)C(=O)N[C@@]1(C)CCCC=CCCC[C@@](C)(C(=O)N[C@@H](CCSC)C(N)=O)NC(=O)[C@H]([C@@H](C)CC)NC(=O)[C@H](C(C)C)NC(=O)[C@H](CC(C)C)NC1=O)C(C)C [SP-319] (Ac-LLQGEELLRALDQVNIDEEVLM[S5]LVI[S5]M-NH2; staple 23-27)
[1]
  Viability 1% FBS AVG (MTT V3-24 hr Normoxia) (μM): ++++ (≥30: ++++)
[2]
  18 h Avg % max inhibition at top conc (HIF Rptr-24 hrs normoxia) (μM): + (<10: +)
  EC50: > 30 µM

## CC[C@H](C)[C@H](NC(=O)[C@H](Cc1ccccc1)NC(C)=O)C(=O)N[C@@H](CC(=O)O)C(=O)N[C@@H](CCC(=O)O)C(=O)N[C@@H](CCC(=O)O)C(=O)N[C@H](C(=O)N[C@@H](CC(C)C)C(=O)N[C@@H](CCSC)C(=O)N[C@@]1(C)CCCC=CCCC[C@@](C)(C(=O)N[C@@H](CCSC)C(=O)N[C@@H](C)C(=O)N[C@@H](CC(C)C)C(=O)N[C@@H](CC(C)C)C(N)=O)NC(=O)[C@H]([C@@H](C)CC)NC(=O)[C@H](C(C)C)NC(=O)[C@H](CC(C)C)NC1=O)C(C)C [SP-229] (Ac-FIDEEVLM[S5]LVI[S5]MALL-NH2; staple 9-13)
[1]
  Viability 1% FBS AVG (MTT V3-24 hr Normoxia) (μM): ++++ (≥30: ++++)
[2]
  18 h Avg % max inhibition at top conc (HIF Rptr-24 hrs normoxia) (μM): + (<10: +)
  EC50: > 30 µM

## CC[C@H](C)[C@H](NC(=O)[C@H](CCCNC(=N)N)NC(=O)[C@H](CC(=O)O)NC(=O)[C@H](CC(C)C)NC(=O)[C@H](C)NC(=O)[C@H](CCSC)NC(=O)[C@]1(C)CCCC=CCCC[C@](C)(NC(=O)[C@H](CCSC)NC(=O)[C@H](CC(C)C)NC(=O)[C@@H](NC(=O)[C@H](CCC(N)=O)NC(=O)[C@H](CCC(=O)O)NC(=O)[C@H](CC(=O)O)NC(=O)[C@@H](NC(=O)[C@H](Cc2ccccc2)NC(C)=O)[C@@H](C)CC)C(C)C)C(=O)N[C@@H](CC(C)C)C(=O)N[C@@H](C(C)C)C(=O)N[C@@H]([C@@H](C)CC)C(=O)N1)C(N)=O [SP-282] (Ac-FIDEQVLM[S5]LVI[S5]MALDRI-NH2; staple 9-13)
[1]
  Viability 1% FBS AVG (MTT V3-24 hr Normoxia) (μM): ++++ (≥30: ++++)
[2]
  18 h Avg % max inhibition at top conc (HIF Rptr-24 hrs normoxia) (μM): ++++ (≥50: ++++)
  EC50: ≤ 5 µM

## CC[C@H](C)[C@H](NC(=O)[C@H](CCCNC(=N)N)NC(=O)[C@H](CC(=O)O)NC(=O)[C@H](CC(C)C)NC(=O)[C@H](C)NC(=O)[C@H](CCSC)NC(=O)[C@]1(C)CCCC=CCCC[C@](C)(NC(=O)[C@H](CCSC)NC(=O)[C@H](Cc2ccccc2)NC(=O)[C@@H](NC(=O)[C@H](CCC(=O)O)NC(=O)[C@H](CCC(N)=O)NC(=O)[C@H](CC(=O)O)NC(=O)[C@@H](NC(=O)[C@H](Cc2ccccc2)NC(C)=O)[C@@H](C)CC)C(C)C)C(=O)N[C@@H](CC(C)C)C(=O)N[C@@H](C(C)C)C(=O)N[C@@H]([C@@H](C)CC)C(=O)N1)C(N)=O [SP-267] (Ac-FIDQEVFM[S5]LVI[S5]MALDRI-NH2; staple 9-13)
[1]
  Viability 1% FBS AVG (MTT V3-24 hr Normoxia) (μM): ++++ (≥30: ++++)
[2]
  18 h Avg % max inhibition at top conc (HIF Rptr-24 hrs normoxia) (μM): +++ (≤25 but <50: +++)
  EC50: > 30 µM

## CCCC[C@H](NC(=O)[C@H](CCC(=O)O)NC(=O)[C@@H](NC(=O)[C@@H](NC(=O)[C@H](CC(C)C)NC(=O)[C@]1(C)CCCC=CCCC[C@](C)(NC(=O)[C@H](CCC(=O)O)NC(=O)[C@H](CC(=O)O)NC(=O)[C@@H](NC(=O)[C@H](Cc2ccccc2)NC(C)=O)[C@@H](C)CC)C(=O)N[C@@H](CO)C(=O)N[C@@H](CC(C)C)C(=O)N[C@@H](CCCC)C(=O)N1)C(C)C)[C@@H](C)CC)C(=O)N[C@@H](C)C(=O)N[C@@H](CC(C)C)C(N)=O [SP-140] (Ac-FIDE[S5]SL[Nle][S5]LVIE[Nle]AL-NH2; staple 5-9)
[1]
  Viability 1% FBS AVG (MTT V3-24 hr Normoxia) (μM): +++ (≤15 but <30: +++)
[2]
  18 h Avg % max inhibition at top conc (HIF Rptr-24 hrs normoxia) (μM): +++ (≤25 but <50: +++)
  EC50: > 30 µM

## CCCC[C@H](NC(=O)[C@H](CCC(=O)O)NC(=O)[C@@H](NC(=O)[C@@H](NC(=O)[C@H](CC(C)C)NC(=O)[C@]1(C)CCCC=CCCC[C@](C)(NC(=O)[C@H](CCC(=O)O)NC(=O)[C@H](CC(=O)O)NC(=O)[C@@H](NC(=O)[C@H](Cc2ccccc2)NC(C)=O)[C@@H](C)CC)C(=O)N[C@@H](C(C)C)C(=O)N[C@@H](CC(C)C)C(=O)N[C@@H](CCSC)C(=O)N1)C(C)C)[C@@H](C)CC)C(=O)N[C@@H](C)C(=O)N[C@@H](CC(C)C)C(=O)N[C@@H](CC(=O)O)C(=O)N[C@@H](CCCNC(=N)N)C(=O)N[C@H](C(N)=O)[C@@H](C)CC [SP-119] (Ac-FIDE[S5]VLM[S5]LVIE[Nle]ALDRI-NH2; staple 5-9)
[1]
  Viability 1% FBS AVG (MTT V3-24 hr Normoxia) (μM): ++++ (≥30: ++++)
[2]
  18 h Avg % max inhibition at top conc (HIF Rptr-24 hrs normoxia) (μM): +++ (≤25 but <50: +++)
  EC50: > 30 µM

## CC[C@H](C)[C@H](NC(=O)[C@H](Cc1ccccc1)NC(C)=O)C(=O)N[C@@H](CC(N)=O)C(=O)N[C@@H](CCC(=O)O)C(=O)N[C@@H](CCC(=O)O)C(=O)N[C@H](C(=O)N[C@@H](CC(C)C)C(=O)N[C@@H](CCSC)C(=O)N[C@@]1(C)CCCC=CCCC[C@@](C)(C(=O)N[C@@H](CCSC)C(=O)N[C@@H](C)C(=O)N[C@@H](CC(C)C)C(N)=O)NC(=O)[C@H]([C@@H](C)CC)NC(=O)[C@H](C(C)C)NC(=O)[C@H](CC(C)C)NC1=O)C(C)C [SP-232] (Ac-FINEEVLM[S5]LVI[S5]MAL-NH2; staple 9-13)
[3]
  IC50: 400 to 700 nM
[2]
  18 h Avg % max inhibition at top conc (HIF Rptr-24 hrs normoxia) (μM): ++ (≤10 but <25: ++)
  EC50: > 30 µM
